Assay results taken from patent publication EP1118612A1, “Piperazine derivatives possesing nootropic activity” (Universita Degli Studi di Firenze, priority 2000, dated 2001).

Test system: mice
Assay: Passive-Avoidance test (modified step-through, fall into cold water bath), amnesia induced by scopolamine, baclofen, mecamylamine or clonidine
Format: in vivo, mouse
Settings: for 2nd Day (latency time for entering the dark compartment, retention test after 24 h): max latency 120 s
Description: A slightly modified step-through method described by Jarvik and [Psycol. Rep. […] The apparatus consists of a two-compartment acrylic box with a lighted compartment connected to the darkened one by a guillotine door. In the original method, mice received a punishing electrical shock as soon as they entered the dark compartment, while in our modified method, after entry into the dark compartment, mice receive a non-painful punishment consisting of a fall (from 40 cm ) into a cold water bath (10°C) . For this purpose the dark chamber was constructed with a pitfall floor. The latency times for entering the dark compartment were measured in the training test (first day) and after 24 h in the retention test (second day). […] All investigated drugs were injected 20 min before the training session, while amnesic drugs were injected immediately after termination of the training session. […] The memory degree of received punishment (fall into cold water) was expressed as the increase in seconds between training and retention latencies (see Table 5).

[1] = 0.1 mg kg^-1, + Scopolamine 1.5 mg kg^-1 i.p.
[2] = 0.1 mg kg^-1 injected 20 min before training, + Scopolamine 1.5 mg kg^-1 i.p. after training
[3] = 30 mg kg^-1 injected 20 min before training, + Baclofen 2 mg kg^-1 i.p. after training
[4] = 30 mg kg^-1 injected 20 min before training, + Scopolamine 1.5 mg kg^-1 i.p. after training
[5] = 1.0 mg kg^-1 injected 20 min before training, + Baclofen 2 mg kg^-1 i.p. after training
[6] = 1.0 mg kg^-1 injected 20 min before training, + Clonidine 0.125 mg kg^-1 i.p. after training
[7] = 10 mg kg^-1 injected 20 min before training, + Scopolamine 1.5 mg kg^-1 i.p. after training
[8] = 20 mg kg^-1 injected 20 min before training, + Mecamilamine 20 mg kg^-1 i.p. after training
[9] = 0.001 mg kg^-1 injected 20 min before training, + Scopolamine 1.5 mg kg^-1 i.p. after training
[10] = 0.01 mg kg^-1, + Scopolamine 1.5 mg kg^-1 i.p.
[11] = 0.01 mg kg^-1 injected 20 min before training, + Baclofen 2 mg kg^-1 i.p. after training
[12] = 0.01 mg kg^-1 injected 20 min before training, + Scopolamine 1.5 mg kg^-1 i.p. after training
[13] = 10 mg kg^-1 injected 20 min before training, + Mecamilamine 20 mg kg^-1 i.p. after training
[14] = 0.1 mg kg^-1 injected 20 min before training, + Baclofen 2 mg kg^-1 i.p. after training
[15] = 0.1 mg kg^-1 injected 20 min before training, + Clonidine 0.125 mg kg^-1 i.p. after training
[16] = 1 mg kg^-1 injected 20 min before training, + Mecamilamine 20 mg kg^-1 i.p. after training

SMILES: O=C(c1ccc(F)cc1)N1CCN2C(=O)CCC2C1 (stereo not shown) [Compound 1, 4-(4-fluorobenzoyl)-1,4-diazabicyclo[4.3.0]nonan-9-one]
- Δ (increase in seconds between training and retention latencies) [1]: 82.2 s
- 1st Day (latency time for entering the dark compartment, training test) [2]: 18.1 ± 3.9 s
- 2nd Day (latency time for entering the dark compartment, retention test after 24 h) [2]: 100.3 ± 10.4 s

SMILES: NC(=O)CN1CCCC1=O [Piracetam, piracetam, reference compound]
- 1st Day (latency time for entering the dark compartment, training test) [3]: 20.9 ± 4.5 s
- 1st Day (latency time for entering the dark compartment, training test) (30 mg kg^-1 injected 20 min before training, + Clonidine 0.125 mg kg^-1 i.p. after training): 11.6 ± 3.7 s
- 1st Day (latency time for entering the dark compartment, training test) (30 mg kg^-1 injected 20 min before training, + Mecamilamine 20 mg kg^-1 i.p. after training): 16.7 ± 4.8 s
- 1st Day (latency time for entering the dark compartment, training test) [4]: 17.6 ± 3.6 s

SMILES: CC(=O)N1CCN(C(=O)c2ccc(F)cc2)CC1 [Compound 5, 4-Acetyl-1-(4-fluorobenzoyl)piperazine]
- Δ (increase in seconds between training and retention latencies) (1.0 mg kg^-1, + Baclofen 2 mg kg^-1 i.p.): 93.2 s
- Δ (increase in seconds between training and retention latencies) (1.0 mg kg^-1, + Clonidine 0.125 mg kg^-1 i.p.): 88.1 s
- 1st Day (latency time for entering the dark compartment, training test) [5]: 11.4 ± 5.2 s
- 2nd Day (latency time for entering the dark compartment, retention test after 24 h) [5]: 104.6 ± 10.3 s
- 1st Day (latency time for entering the dark compartment, training test) [6]: 8.0 ± 4.1 s
- 2nd Day (latency time for entering the dark compartment, retention test after 24 h) [6]: 96.1 ± 10.7 s
- Δ (increase in seconds between training and retention latencies) (10 mg kg^-1, + Scopolamine 1.5 mg kg^-1 i.p.): 72.6 s
- 1st Day (latency time for entering the dark compartment, training test) [7]: 17.5 ± 6.1 s
- 2nd Day (latency time for entering the dark compartment, retention test after 24 h) [7]: 91.1 ± 9.5 s
- Δ (increase in seconds between training and retention latencies) (20 mg kg^-1, + Mecamilamine 20 mg kg^-1 i.p.): 91.7 s
- 1st Day (latency time for entering the dark compartment, training test) [8]: 17.0 ± 2.7 s
- 2nd Day (latency time for entering the dark compartment, retention test after 24 h) [8]: 108.7 ± 3.5 s

SMILES: O=C1CCC2CN(S(=O)(=O)c3ccc(F)cc3)CCN12 (racemic) [Compound 2, 4-(4-fluorobenzensolfonyl)-1,4-diazabicyclo[4.3.0]nonan-9-one]
- Δ (increase in seconds between training and retention latencies) (0.001 mg kg^-1, + Scopolamine 1.5 mg kg^-1 i.p.): 93.8 s
- 1st Day (latency time for entering the dark compartment, training test) [9]: 19.7 ± 5.8 s
- 2nd Day (latency time for entering the dark compartment, retention test after 24 h) [9]: 104.4 ± 10.6 s

SMILES: C[C@H]1C[C@@H]2CN(C(=O)c3ccc(F)cc3)CCN2C1=O (racemic) [Compound 3a, Exo (±) 8-methyl-4-(4-fluorobenzoyl)-1,4-diazabicyclo[4.3.0]nonan-9-one]
- Δ (increase in seconds between training and retention latencies) [1]: 85.6 s
- 1st Day (latency time for entering the dark compartment, training test) [2]: 21.8 ± 4.8 s
- 2nd Day (latency time for entering the dark compartment, retention test after 24 h) [2]: 107.4 ± 10.7 s

SMILES: CCC(=O)N1CCN(C(=O)c2ccc(F)cc2)CC1 [Compound 7, 4-Propionyl-1-(4-fluorobenzoyl)piperazine]
- Δ (increase in seconds between training and retention latencies) (30 mg kg^-1, + Baclofen 2 mg kg^-1 i.p.): 86.8 s
- Δ (increase in seconds between training and retention latencies) (30 mg kg^-1, + Scopolamine 1.5 mg kg^-1 i.p.): 80.5 s
- 1st Day (latency time for entering the dark compartment, training test) [3]: 20.6 ± 4.9 s
- 2nd Day (latency time for entering the dark compartment, retention test after 24 h) [3]: 107.1 ± 11.4 s
- 1st Day (latency time for entering the dark compartment, training test) [4]: 11.9 ± 5.6 s
- 2nd Day (latency time for entering the dark compartment, retention test after 24 h) [4]: 92.4 ± 10.1 s

SMILES: C[C@@H]1C[C@@H]2CN(C(=O)c3ccc(F)cc3)CCN2C1=O (racemic) [Compound 3b, Endo (±) 8-methyl-4-(4-fluorobenzoyl)-1,4-diazabicyclo[4.3.0]nonan-9-one]
- Δ (increase in seconds between training and retention latencies) [1]: 80.0 s
- 1st Day (latency time for entering the dark compartment, training test) [2]: 12.5 ± 5.9 s
- 2nd Day (latency time for entering the dark compartment, retention test after 24 h) [2]: 104.0 ± 8.6 s

SMILES: CCC(=O)N1CCN(S(=O)(=O)c2ccc(F)cc2)CC1 [Compound 8, 4-Propionyl-1-(4-fluorobenzensolfonyl)piperazine]
- Δ (increase in seconds between training and retention latencies) (0.01 mg kg^-1, + Baclofen 2 mg kg^-1 i.p.): 86.8 s
- Δ (increase in seconds between training and retention latencies) [10]: 67.9 s
- 1st Day (latency time for entering the dark compartment, training test) [11]: 16.3 ± 3.3 s
- 2nd Day (latency time for entering the dark compartment, retention test after 24 h) [11]: 103.3 ± 13.9 s
- 1st Day (latency time for entering the dark compartment, training test) [12]: 15.9 ± 3.2 s
- 2nd Day (latency time for entering the dark compartment, retention test after 24 h) [12]: 83.8 ± 9.2 s
- Δ (increase in seconds between training and retention latencies) (10 mg kg^-1, + Mecamilamine 20 mg kg^-1 i.p.): 90.2 s
- 1st Day (latency time for entering the dark compartment, training test) [13]: 16.5 ± 2.7 s
- 2nd Day (latency time for entering the dark compartment, retention test after 24 h) [13]: 106.7 ± 10.2 s

SMILES: C[C@@H]1C[C@@H]2CN(S(=O)(=O)c3ccc(F)cc3)CCN2C1=O [Compound 4b, Endo 8-methyl-4-(4-fluorobenzensolfonyl)-1,4-diazabicyclo[4.3.0]nonan-9-one]
- Δ (increase in seconds between training and retention latencies) [1]: 96.5 s
- 1st Day (latency time for entering the dark compartment, training test) [2]: 21.9 ± 4.7 s
- 2nd Day (latency time for entering the dark compartment, retention test after 24 h) [2]: 118.4 ± 10.2 s

SMILES: CC(=O)N1CCN(S(=O)(=O)c2ccc(F)cc2)CC1 [Compound 6, 4-Acetyl-1-(4-fluorobenzensolfonyl)piperazine]
- Δ (increase in seconds between training and retention latencies) [10]: 79.2 s
- 1st Day (latency time for entering the dark compartment, training test) [12]: 19.8 ± 4.1 s
- 2nd Day (latency time for entering the dark compartment, retention test after 24 h) [12]: 99.0 ± 18.3 s
- Δ (increase in seconds between training and retention latencies) (0.1 mg kg^-1, + Baclofen 2 mg kg^-1 i.p.): 80.4 s
- Δ (increase in seconds between training and retention latencies) (0.1 mg kg^-1, + Clonidine 0.125 mg kg^-1 i.p.): 77.4 s
- 1st Day (latency time for entering the dark compartment, training test) [14]: 11.7 ± 4.1 s
- 2nd Day (latency time for entering the dark compartment, retention test after 24 h) [14]: 92.1 ± 7.9 s
- 1st Day (latency time for entering the dark compartment, training test) [15]: 14.7 ± 3.7 s
- 2nd Day (latency time for entering the dark compartment, retention test after 24 h) [15]: 92.4 ± 8.1 s
- Δ (increase in seconds between training and retention latencies) (1 mg kg^-1, + Mecamilamine 20 mg kg^-1 i.p.): 91.6 s
- 1st Day (latency time for entering the dark compartment, training test) [16]: 18.1 ± 3.8 s
- 2nd Day (latency time for entering the dark compartment, retention test after 24 h) [16]: 109.7 ± 13.6 s

SMILES: C[C@H]1C[C@@H]2CN(S(=O)(=O)c3ccc(F)cc3)CCN2C1=O [Compound 4a, Exo 8-methyl-4-(4-fluorobenzensolfonyl)-1,4-diazabicyclo[4.3.0]nonan-9-one]
- Δ (increase in seconds between training and retention latencies) [1]: 78.0 s
- 1st Day (latency time for entering the dark compartment, training test) [2]: 16.9 ± 6.1 s
- 2nd Day (latency time for entering the dark compartment, retention test after 24 h) [2]: 94.9 ± 11.2 s
